What is called IC50 is the concentration at which inhibition is half-maximal.

These results are taken from PMC12735688, “Discovery and Activity Evaluation of Novel Dibenzoxazepinone Derivatives as Glycogen Phosphorylase Inhibitors” (Molecules, 2025).

Assay [1] concerns the target T1, rabbit muscle glycogen phosphorylase a (RMGPa) (Oryctolagus cuniculus, UniProt P00489).
T1 construct: purchased
T1 sequence (P00489 2-843 limits assumed): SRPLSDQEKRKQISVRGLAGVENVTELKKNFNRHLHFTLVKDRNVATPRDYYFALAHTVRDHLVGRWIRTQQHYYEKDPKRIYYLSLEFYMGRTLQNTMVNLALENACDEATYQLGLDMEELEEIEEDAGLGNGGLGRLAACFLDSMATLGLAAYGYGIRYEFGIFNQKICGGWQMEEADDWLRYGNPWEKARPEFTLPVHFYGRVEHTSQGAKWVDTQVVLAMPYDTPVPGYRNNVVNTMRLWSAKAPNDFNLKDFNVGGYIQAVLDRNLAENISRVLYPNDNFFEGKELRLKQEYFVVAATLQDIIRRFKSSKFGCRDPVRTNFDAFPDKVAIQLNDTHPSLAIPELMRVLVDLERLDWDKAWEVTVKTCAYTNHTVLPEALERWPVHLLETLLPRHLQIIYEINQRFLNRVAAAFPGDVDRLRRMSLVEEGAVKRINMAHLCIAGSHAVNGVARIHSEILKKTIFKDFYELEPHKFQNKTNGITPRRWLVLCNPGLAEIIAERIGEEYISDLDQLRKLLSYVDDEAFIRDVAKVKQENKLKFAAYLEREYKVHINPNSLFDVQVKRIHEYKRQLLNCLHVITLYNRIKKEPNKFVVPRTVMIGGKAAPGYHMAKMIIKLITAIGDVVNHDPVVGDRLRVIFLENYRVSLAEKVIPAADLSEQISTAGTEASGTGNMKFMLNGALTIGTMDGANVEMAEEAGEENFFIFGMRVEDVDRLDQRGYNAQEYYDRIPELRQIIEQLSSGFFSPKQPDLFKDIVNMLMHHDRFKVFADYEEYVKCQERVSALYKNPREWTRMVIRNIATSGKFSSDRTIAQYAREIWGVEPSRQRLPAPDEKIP
The experiment in a line: RMGPa enzyme inhibition assay (phosphate release, malachite green). The class given is biochemical. The settings on record: mean ± S.D. of three determinations; NI means no inhibition. The procedure:
The synthesized compounds were evaluated in an enzyme inhibition assay against rabbit muscle glycogen phosphorylase a (RMGPa), a commercially available enzyme that shares considerable sequence similarity with human liver GPa. As described previously, the activity of RMGPa was measured by detecting the release of phosphate from glucose-1-phosphate in the direction of glycogen synthesis. PSN-357, a GP inhibitor in clinical Phase II, was used as positive control.
The inhibitory activity of the test compounds against RMGPa was evaluated using a microplate reader (Bio-Rad Laboratories, Berkeley, CA, USA), based on the release of inorganic phosphate during glycogenolysis. First, the test compounds were dissolved in DMSO and diluted to various concentrations for IC50 determination. A 100 μL aliquot of buffer, containing 50 mM Hepes (pH = 7.2), 100 mM potassium chloride (KCl), 2.5 mM magnesium chloride (MgCl2), 0.5 mM glucose-1-phosphate, 1 mg/mL glycogen, and the test compound solution, was added to a 96-well Costar microplate (Corning Inc., New York, NY, USA). The reaction mixture was incubated at 22 °C for 25 min, after which 150 μL of solution containing 10 mg/mL ammonium molybdate and 0.38 mg/mL malachite green was added to stop the reaction. The absorbance of phosphate was measured at 620 nm. IC50 values were determined by fitting the inhibition data to a dose–response curve using a logistic derivative equation.

The test system of assay [2] is hyperglycemic mice induced by adrenaline. Description: Acute hypoglycemic experiment in adrenaline-induced hyperglycemic mice. The class given is in vivo, C57BL/6J mice. The conditions noted are these: 400 mg/kg single oral dose, about 2 h after administration; model group 8.91 ± 0.69; p < 0.01; mean ± SEM. As for the experimental part:
First, its ability was investigated by oral administration with one dose of 0.5% CMC-NA (model group) or compound Id at different concentrations (12.5, 25 and 50 mg/kg) for treatment. Metformin (400 mg/kg) was selected as a positive control.
The animal experiments were conducted following the method described in reference. Male C57BL/6J mice (6–8 weeks old, 18–20 g) were obtained from Beijing Huafukang Biotechnology Co., Ltd. (Beijing, China), maintained under standard conditions (food/water ad libitum), and acclimatized for 1 week. After acclimatization, baseline blood glucose was measured via tail vein sampling. Subsequently, mice were randomized into 6 groups (10/group) by blood glucose/body weight, with no significant differences in initial blood glucose (mean ± SEM). Post-grouping, daily oral 0.5% CMC-Na (as vehicle) was given. On the night before the experimental day, mice were fasted overnight with free access to water. On the experimental day, mice were orally administered Compound Id (50, 25, 12.5 mg/kg), metformin (400 mg/kg, as positive control), or 0.5% CMC-Na, followed by subcutaneous 0.2 mg/kg adrenaline to induce hyperglycemia. Finally, blood glucose was measured/recorded at 0, 30, 60, 90, and 120 min post-administration via JPS-5 meter.

Assay [3] concerns the target T1, rabbit muscle glycogen phosphorylase a (RMGPa). On the set-up: method as in PMID 33906369. The conditions noted are these: previously reported parent compound; read-out: IC50 (RMGPa inhibition) of parent compound; cited from earlier work.

Structures can show the parent of a compound that is named as a salt. Where two headings read alike, the source gives them in different places.

Turning to `COc1ccc2[nH]c(C(=O)Nc3ccc4c(c3)NC(=O)c3ccc(C(F)(F)F)cc3O4)cc2c1` [IIc], in assay [1], the IC50 was determined as 840 ± 50 nM.
In assay [1], `Cc1ccc2[nH]c(C(=O)Nc3ccc4c(c3)NC(=O)c3ccc(C(F)(F)F)cc3O4)cc2c1` [IIf] gave an IC50 of 338 ± 55 nM.
Regarding `CN(C)C(=N)N=C(N)N` [Metformin, Metformin hydrochloride, reference compound], in assay [2], the blood glucose was determined as 6.57 ± 0.71 mmol/L.
Consider `COc1cnc2[nH]c(C(=O)Nc3ccc4c(c3)NC(=O)c3ccc(C(F)(F)F)cc3O4)cc2c1` [IId], for which the 50% inhibitory concentration (IC50) in assay [1] turned out to be 1790 ± 104 nM.
Consider `CCCc1cc(OC)c2c(c1)C(=O)Nc1cc(NC(=O)c3cc4cc(Cl)ccc4[nH]3)ccc1O2` [Ie, 5-chloro-N-(3-methoxy-11-oxo-5-propyl-10,11-dihydrodibenzo[b,f][1,4]oxazepin-8-yl)-1H-indole-2-carboxamide], for which half-maximal inhibition in assay [1] (IC50) was put at 2180 ± 156 nM.
`O=C1CCOc2ccc(NC(=O)c3cc4cc(Cl)ccc4[nH]3)cc2N1` [Compound 1]: the IC50 in assay [3] is 250 ± 50 nM.
The molecule `O=C(Nc1ccc2c(c1)NC(=O)c1ccc(C(F)(F)F)cc1O2)c1cc2cc(O)ccc2[nH]1` [IIb] returned an IC50 in assay [1] of 723 ± 82 nM.
